Reference: patent US10258639B2, “Methods for treating insulin resistance and for sensitizing patients to GLP1 agonist therapy” (Research Development Foundation, priority 2014, dated 2019)

Tested on: INS1 cells
Assay: RNAseq of INS1 cells infected with ACREB compared to GFP and stimulated with FSK
Type: cell-based, rat
Design: Irs2 RNAseq value, FSK / MafA RNAseq value, FSK / Nr4a2 RNAseq value, FSK / Diras2 RNAseq value, FSK: unit not given here
Settings: for Diras2 fold induction / Irs2 fold induction / MafA fold induction / Nr4a2 fold induction: FSK vs control; for Diras2 RNAseq value, FSK / Irs2 RNAseq value, FSK / MafA RNAseq value, FSK / Nr4a2 RNAseq value, FSK: stimulated with FSK
Method: Transcriptome-wide studies were performed to identify CREB target genes that promote insulin expression and secretion. […] INS-1 insulinoma cells were cultured in RPMI (corning cellgro) containing 10% fetal bovine serum (Gemini Bio Products), 100 μg/mL penicillin-streptomycin and 1 mM sodium pyruvate (corning cellgro). MIN6 cells were grown in DMEM (corning cellgro) with 10% FBS, 100 μg/mL penicillin-streptomycin and 70 uM beta-mercaptoethanol. For chronic glucose experiments, cells were maintained under low (2.8 mM) or high (20 mM) glucose for 3 days. Exendin-4 (10 nM), Forskolin (10 μM), KCl (40 mM), DMOG (1 mM) and rapamycin (50 nM) were added to cells as indicated. Cellular cAMP levels were measured using an ELISA kit (Cayman Chemical Company) according to manufacturer's instructions. Total RNAs from cells or primary islets were extracted using Trizol and cDNA was generated using the Transcriptor First Strand cDNA Synthesis kit (Roche Applied Science). cDNAs were quantified on a lightcycler 480 instrument (Roche Applied Science). Gene expression data were presented relative to the expression of housekeeping gene L32 (rat samples) and 18S (mouse and human islets). RNA-Seq libraries were prepared using the mRNA isolation protocol and the NEBNext-Ultra kits from New England Biolabs following the manufacturer's protocols. Libraries were quantitated by Qubit (Invitrogen), and run on a MiSeq instrument with paired-end 75 bp reads using v3 chemistry (Illumina) Data were analyzed by tophat2 and cuffdiff against the mouse mm10 genome build. The GEO accession number for RNAseq studies reported in the paper is GSE60158.

Diras2 fold induction (INS1 cells infected with ACREB): 1.7 fold
Irs2 fold induction (INS1 cells infected with ACREB): 2.3 fold
MafA fold induction (INS1 cells infected with ACREB): 3.7 fold
Nr4a2 fold induction (INS1 cells infected with ACREB): 6.3 fold
Diras2 fold induction (INS1 cells infected with GFP): 11.5 fold
Irs2 fold induction (INS1 cells infected with GFP): 5.6 fold
MafA fold induction (INS1 cells infected with GFP): 8.7 fold
Nr4a2 fold induction (INS1 cells infected with GFP): 56.6 fold
Compound: C=C[C@@]1(C)CC(=O)[C@]2(O)[C@@]3(C)[C@@H](O)CCC(C)(C)[C@@H]3[C@H](O)[C@H](OC(C)=O)[C@@]2(C)O1 [FSK, Forskolin]
Diras2 RNAseq value, FSK (INS1 cells infected with ACREB): 109.5
Irs2 RNAseq value, FSK (INS1 cells infected with ACREB): 38.8
MafA RNAseq value, FSK (INS1 cells infected with ACREB): 90.2
Nr4a2 RNAseq value, FSK (INS1 cells infected with ACREB): 5.5
Diras2 RNAseq value, FSK (INS1 cells infected with GFP): 519.7
Irs2 RNAseq value, FSK (INS1 cells infected with GFP): 289.9
MafA RNAseq value, FSK (INS1 cells infected with GFP): 474.4
Nr4a2 RNAseq value, FSK (INS1 cells infected with GFP): 106.5
